Assay [1] has as its target T1, NTR1 (Homo sapiens, UniProt P30989). In words: ^125I-NT binding to isolated PC3 cell membranes. Further details: Ab-NTR1 detected two major bands in extracts of PC3 cells, the parent protein of 50 kDa; endogenous in cells; host or cells: PC3 cells (ATCC).
Assay [2] deals with T1, NTR1. In words: UV crosslinking of ^125I-(4-azido-Phe^6)-NT into immunoprecipitated NTR1 of PC3 cells. Also noted: Ab-NTR1 detected two major bands in extracts of PC3 cells, the parent protein of 50 kDa; endogenous in cells; host or cells: PC3 cells (ATCC). It counts as binding. As to conditions: 50 μM agent.
In the next assay the target is T2, 5-LOX (Homo sapiens, UniProt P09917).
T2 sequence (P09917 1-674): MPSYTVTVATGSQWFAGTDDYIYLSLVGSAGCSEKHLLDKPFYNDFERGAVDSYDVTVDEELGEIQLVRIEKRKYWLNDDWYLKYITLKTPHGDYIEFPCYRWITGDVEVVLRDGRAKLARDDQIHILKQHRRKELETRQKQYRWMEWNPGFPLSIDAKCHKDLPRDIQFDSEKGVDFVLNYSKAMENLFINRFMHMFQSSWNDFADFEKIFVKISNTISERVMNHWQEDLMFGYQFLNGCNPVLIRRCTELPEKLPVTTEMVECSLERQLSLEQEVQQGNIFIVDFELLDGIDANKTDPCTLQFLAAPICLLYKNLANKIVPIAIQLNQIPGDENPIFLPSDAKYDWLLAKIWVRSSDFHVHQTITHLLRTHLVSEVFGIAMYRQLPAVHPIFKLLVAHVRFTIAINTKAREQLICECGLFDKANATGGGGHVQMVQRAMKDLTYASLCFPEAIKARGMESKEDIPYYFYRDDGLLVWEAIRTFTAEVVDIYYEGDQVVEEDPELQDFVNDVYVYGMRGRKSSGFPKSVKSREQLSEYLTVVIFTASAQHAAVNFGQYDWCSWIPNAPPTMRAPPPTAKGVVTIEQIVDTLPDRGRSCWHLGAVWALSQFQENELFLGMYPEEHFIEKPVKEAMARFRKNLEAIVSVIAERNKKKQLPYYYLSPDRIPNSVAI
As to conditions: range of reported values, various blood cell systems; cited from earlier work.

For assay [3], the target named is T1, NTR1. In words: ^125I-NT binding to PC3 cells.
Another assay deals with T3, EGF receptor (Homo sapiens, UniProt P00533).
T3 construct: endogenous in cells; host or cells: PC3 cells (ATCC)
T3 sequence (P00533 25-1210): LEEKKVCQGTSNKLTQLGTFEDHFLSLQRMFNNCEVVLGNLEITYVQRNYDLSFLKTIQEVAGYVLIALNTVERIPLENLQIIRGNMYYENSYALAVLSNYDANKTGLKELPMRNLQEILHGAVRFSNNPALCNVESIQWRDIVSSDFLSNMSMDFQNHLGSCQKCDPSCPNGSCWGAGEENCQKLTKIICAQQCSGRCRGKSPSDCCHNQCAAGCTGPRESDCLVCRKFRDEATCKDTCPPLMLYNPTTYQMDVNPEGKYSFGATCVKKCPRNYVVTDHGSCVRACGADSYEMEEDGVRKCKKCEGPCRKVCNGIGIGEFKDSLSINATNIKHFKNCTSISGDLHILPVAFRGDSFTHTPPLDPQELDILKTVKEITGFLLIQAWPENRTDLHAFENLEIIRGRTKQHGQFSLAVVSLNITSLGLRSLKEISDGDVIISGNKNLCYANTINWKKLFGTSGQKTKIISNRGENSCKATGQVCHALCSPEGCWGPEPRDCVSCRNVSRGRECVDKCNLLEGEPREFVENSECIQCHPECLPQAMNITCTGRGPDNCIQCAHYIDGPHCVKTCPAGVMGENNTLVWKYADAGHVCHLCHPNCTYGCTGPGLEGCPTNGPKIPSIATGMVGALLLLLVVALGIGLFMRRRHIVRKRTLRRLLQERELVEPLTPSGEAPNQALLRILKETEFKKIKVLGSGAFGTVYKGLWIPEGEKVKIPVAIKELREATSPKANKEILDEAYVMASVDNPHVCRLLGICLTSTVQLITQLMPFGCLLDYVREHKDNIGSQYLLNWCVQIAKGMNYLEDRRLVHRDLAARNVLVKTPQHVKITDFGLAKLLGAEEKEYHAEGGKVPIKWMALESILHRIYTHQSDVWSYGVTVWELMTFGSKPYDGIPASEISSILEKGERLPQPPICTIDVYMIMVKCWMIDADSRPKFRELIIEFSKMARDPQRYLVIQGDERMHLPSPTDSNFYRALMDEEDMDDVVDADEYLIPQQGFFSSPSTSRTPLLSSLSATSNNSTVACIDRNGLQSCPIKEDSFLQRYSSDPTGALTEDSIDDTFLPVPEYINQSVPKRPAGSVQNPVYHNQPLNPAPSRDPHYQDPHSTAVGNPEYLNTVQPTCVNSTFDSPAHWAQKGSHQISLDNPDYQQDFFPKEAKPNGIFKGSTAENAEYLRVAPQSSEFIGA
In words: ^125I-EGF binding to PC3 cells. As to conditions: PC3 cells (text to Table 9).

The next assay concerns the target T4, bombesin receptor (Homo sapiens, UniProt P30550).
T4 construct: endogenous in cells; host or cells: PC3 cells (ATCC)
In words: ^125I-[Nle^14]-bombesin binding to PC3 cells. As to conditions: 37° C.

Assay [4] deals with neurotensin-2 receptor (NTR2) (Homo sapiens, UniProt O95665). The note with it: read-out: binding affinity; cited from earlier work.
Sequence of neurotensin-2 receptor (NTR2) (O95665 whole entry, species assumed): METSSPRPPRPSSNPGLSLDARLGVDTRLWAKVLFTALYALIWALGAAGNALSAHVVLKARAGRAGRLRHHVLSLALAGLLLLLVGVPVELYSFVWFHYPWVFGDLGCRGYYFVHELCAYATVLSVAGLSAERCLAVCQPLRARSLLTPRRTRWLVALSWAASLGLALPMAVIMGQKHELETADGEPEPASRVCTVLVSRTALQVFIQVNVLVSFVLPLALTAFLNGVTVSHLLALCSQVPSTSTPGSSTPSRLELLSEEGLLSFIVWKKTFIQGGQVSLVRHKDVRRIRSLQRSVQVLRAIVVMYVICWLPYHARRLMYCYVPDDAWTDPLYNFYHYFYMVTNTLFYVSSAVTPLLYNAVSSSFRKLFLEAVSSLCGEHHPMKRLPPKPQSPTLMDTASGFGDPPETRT
In assay [5] the target is neurotensin-1 receptor (NTR1) (Homo sapiens, UniProt P30989). As to conditions: read-out: binding affinity; cited from earlier work.
Sequence of neurotensin-1 receptor (NTR1) (P30989 whole entry, species assumed): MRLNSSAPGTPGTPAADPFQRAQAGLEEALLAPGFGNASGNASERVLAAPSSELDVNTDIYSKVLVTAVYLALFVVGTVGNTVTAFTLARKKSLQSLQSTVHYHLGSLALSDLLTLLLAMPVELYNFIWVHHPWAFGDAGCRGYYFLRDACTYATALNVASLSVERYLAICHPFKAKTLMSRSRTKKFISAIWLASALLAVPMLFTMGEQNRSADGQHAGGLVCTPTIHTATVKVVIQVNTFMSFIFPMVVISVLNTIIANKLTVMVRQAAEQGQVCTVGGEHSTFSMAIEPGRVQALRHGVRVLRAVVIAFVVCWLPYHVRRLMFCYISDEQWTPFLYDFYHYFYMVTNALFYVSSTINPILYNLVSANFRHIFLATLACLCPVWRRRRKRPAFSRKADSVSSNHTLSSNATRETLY

Broadly, the IC50 is the concentration needed to halve the response being measured. Broadly, the EC50 is the concentration at which the effect is half-maximal.

No end group written: not given here.

T1 sequence (P30989 whole entry): as the sequence (P30989 whole entry, species assumed) above
T4 sequence (P30550 whole entry): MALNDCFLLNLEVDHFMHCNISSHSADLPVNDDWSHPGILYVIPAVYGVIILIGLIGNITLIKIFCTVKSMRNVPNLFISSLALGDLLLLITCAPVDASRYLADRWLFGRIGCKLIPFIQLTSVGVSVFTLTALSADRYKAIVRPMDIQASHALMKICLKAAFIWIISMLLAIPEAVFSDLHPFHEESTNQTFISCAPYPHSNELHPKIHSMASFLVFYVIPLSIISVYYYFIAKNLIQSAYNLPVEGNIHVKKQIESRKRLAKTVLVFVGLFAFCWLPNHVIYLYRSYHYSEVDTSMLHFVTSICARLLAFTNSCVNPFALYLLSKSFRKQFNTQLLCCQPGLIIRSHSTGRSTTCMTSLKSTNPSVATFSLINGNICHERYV

In the case of `CC(C)c1ccc2c(c1)c(SC(C)(C)C)c(CC(C)(C)C(=O)O)n2Cc1ccc(Cl)cc1` [MK886], the “Specific NT-Binding (% control)” value turned out to be 99 ± 3 % control at NTR1 [1] (10 μM LOX pathway blocker), 107 ± 4 % control on NTR1 [1] (25 μM LOX pathway blocker) and 97 ± 4 % control at NTR1 [1] (75 μM LOX pathway blocker). Besides, the “radioactivity associated with NTR1” value on NTR1 [2] came to 2.7±0.3 fold. Besides, the IC50 on 5-LOX is 100 to 1000 nM. Also, on NTR1 [3] (LOX blockers), the “NT Binding Efficacy % increase” value amounted to 210 % increase. The “maximal increase in NT binding to PC3 cells” value at NTR1 [3] (as much as / up to, dose-response) is at most 3.0 fold. Moreover, at NTR1 [3] (read-out: NT Binding EC50, [agent] giving 100% increase in NT binding), the EC50 was 18000 nM. Moreover, on EGF receptor, the “increase in EGF binding” value came to 65%. In addition, the “Specific Binding (% control) of ^125I-[Nle14]-bombesin” value came out at 106 ± 5 % control on bombesin receptor (12 μM LOX blocker) and 125 ± 7 % control on bombesin receptor (60 μM LOX blocker).
As to “Trp 11 NT(1-13): peptide identical to NT (1-13) except tryptophan for tyrosine at amino acid 11 (QLYENKPRRPWIL; ends and bridges not checked; UniProt P30990 151-163, looked up, variant Y11W)”, the results for the Kd in assay [4] and in assay [5] were around 27 nM and around 1 nM, respectively.

The values are drawn from patent US20060062729A1, “Enhanced ligand binding to neurotensin receptors” (priority 2004, published 2006).
